Where two headings read alike, the source gives them in different places.
How the values were obtained:
Assay in all cases: Kinase selectivity, P33-radiolabeled assay
Type in all cases: biochemical
Conditions in all cases: 10 μM ATP
[1] = biological target: T1, ACK1 (Homo sapiens, UniProt Q07912)
T1 construct: purchased Reaction Biology Corp
In short: (§1)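 Percent residual kinase activity versus DMSO is reported. Conditions: compound at 10 μM, ATP at 10 μM, n = 2.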

[2] = biological target: T2, ALK3/BMPR1A (Homo sapiens, UniProt P36894)
T2 construct: purchased Reaction Biology Corp
T2 sequence (P36894 24-532): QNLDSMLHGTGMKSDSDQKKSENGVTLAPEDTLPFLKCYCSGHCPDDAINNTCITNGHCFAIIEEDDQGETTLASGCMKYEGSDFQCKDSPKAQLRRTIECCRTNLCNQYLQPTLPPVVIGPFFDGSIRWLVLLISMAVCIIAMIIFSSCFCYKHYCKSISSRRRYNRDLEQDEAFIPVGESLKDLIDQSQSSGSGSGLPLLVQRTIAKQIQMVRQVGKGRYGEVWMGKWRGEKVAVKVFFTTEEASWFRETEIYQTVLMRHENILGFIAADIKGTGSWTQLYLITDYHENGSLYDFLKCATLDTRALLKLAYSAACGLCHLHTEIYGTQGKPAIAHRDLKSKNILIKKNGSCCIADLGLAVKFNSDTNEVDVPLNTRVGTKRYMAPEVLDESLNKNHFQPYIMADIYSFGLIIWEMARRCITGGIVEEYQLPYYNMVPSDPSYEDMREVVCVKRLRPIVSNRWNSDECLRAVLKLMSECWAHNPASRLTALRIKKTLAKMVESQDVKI
In short: as §1

[3] = biological target: T3, BTK (Homo sapiens, UniProt Q06187)
T3 construct: purchased Reaction Biology Corp
T3 sequence (Q06187 whole entry): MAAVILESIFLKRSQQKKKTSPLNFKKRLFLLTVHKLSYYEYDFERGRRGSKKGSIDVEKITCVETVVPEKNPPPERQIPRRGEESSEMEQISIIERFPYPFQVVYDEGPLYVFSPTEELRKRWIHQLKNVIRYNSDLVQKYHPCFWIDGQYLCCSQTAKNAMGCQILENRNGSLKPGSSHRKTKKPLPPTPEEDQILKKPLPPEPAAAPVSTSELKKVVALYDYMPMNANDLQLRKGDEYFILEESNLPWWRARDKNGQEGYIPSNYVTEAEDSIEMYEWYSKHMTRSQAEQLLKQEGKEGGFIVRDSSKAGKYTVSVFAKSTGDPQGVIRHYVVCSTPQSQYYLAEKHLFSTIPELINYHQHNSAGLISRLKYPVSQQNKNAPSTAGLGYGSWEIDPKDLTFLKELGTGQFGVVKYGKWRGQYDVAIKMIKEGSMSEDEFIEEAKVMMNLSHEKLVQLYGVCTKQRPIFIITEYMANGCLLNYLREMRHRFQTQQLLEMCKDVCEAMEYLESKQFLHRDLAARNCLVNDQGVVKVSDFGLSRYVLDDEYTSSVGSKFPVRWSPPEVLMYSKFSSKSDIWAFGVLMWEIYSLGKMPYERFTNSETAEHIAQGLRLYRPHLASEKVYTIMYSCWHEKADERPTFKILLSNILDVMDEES
In short: as §1

[4] = biological target: T4, CAMK2a (Homo sapiens, UniProt Q9UQM7)
T4 construct: purchased Reaction Biology Corp
T4 sequence (Q9UQM7 whole entry): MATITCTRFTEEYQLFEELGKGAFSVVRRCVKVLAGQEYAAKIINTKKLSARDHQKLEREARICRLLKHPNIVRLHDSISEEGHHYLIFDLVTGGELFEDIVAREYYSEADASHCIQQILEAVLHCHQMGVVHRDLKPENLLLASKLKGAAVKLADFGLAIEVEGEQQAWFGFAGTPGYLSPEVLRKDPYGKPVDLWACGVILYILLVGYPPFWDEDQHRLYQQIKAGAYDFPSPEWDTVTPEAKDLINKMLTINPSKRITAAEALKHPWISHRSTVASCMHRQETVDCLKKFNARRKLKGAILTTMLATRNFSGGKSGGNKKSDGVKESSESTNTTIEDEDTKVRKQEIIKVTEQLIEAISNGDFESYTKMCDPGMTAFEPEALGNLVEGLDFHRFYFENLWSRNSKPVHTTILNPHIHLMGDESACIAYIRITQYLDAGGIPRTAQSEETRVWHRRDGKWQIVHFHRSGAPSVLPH
In short: as §1

[5] = biological target: T5, GRK1 (Homo sapiens, UniProt Q15835)
T5 construct: purchased Reaction Biology Corp
T5 sequence (Q15835 1-563): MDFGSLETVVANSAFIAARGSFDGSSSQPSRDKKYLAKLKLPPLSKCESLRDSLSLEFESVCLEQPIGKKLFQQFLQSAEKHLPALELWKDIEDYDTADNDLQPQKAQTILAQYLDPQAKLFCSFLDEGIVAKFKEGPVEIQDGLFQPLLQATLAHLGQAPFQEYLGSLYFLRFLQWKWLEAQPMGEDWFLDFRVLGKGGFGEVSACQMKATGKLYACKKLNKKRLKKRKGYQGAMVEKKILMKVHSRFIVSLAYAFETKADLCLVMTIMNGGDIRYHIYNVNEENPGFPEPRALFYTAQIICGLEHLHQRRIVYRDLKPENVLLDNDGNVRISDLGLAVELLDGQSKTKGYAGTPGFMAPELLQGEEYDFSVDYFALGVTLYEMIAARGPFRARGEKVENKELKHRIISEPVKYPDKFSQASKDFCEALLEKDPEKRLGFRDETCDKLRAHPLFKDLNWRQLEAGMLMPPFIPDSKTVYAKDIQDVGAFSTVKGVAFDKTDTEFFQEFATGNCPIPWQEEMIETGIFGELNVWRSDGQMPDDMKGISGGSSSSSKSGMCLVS
In short: as §1

[6] = biological target: T6, HGK/MAP4K4 (Homo sapiens, UniProt O95819)
T6 construct: purchased Reaction Biology Corp
T6 sequence (O95819 whole entry): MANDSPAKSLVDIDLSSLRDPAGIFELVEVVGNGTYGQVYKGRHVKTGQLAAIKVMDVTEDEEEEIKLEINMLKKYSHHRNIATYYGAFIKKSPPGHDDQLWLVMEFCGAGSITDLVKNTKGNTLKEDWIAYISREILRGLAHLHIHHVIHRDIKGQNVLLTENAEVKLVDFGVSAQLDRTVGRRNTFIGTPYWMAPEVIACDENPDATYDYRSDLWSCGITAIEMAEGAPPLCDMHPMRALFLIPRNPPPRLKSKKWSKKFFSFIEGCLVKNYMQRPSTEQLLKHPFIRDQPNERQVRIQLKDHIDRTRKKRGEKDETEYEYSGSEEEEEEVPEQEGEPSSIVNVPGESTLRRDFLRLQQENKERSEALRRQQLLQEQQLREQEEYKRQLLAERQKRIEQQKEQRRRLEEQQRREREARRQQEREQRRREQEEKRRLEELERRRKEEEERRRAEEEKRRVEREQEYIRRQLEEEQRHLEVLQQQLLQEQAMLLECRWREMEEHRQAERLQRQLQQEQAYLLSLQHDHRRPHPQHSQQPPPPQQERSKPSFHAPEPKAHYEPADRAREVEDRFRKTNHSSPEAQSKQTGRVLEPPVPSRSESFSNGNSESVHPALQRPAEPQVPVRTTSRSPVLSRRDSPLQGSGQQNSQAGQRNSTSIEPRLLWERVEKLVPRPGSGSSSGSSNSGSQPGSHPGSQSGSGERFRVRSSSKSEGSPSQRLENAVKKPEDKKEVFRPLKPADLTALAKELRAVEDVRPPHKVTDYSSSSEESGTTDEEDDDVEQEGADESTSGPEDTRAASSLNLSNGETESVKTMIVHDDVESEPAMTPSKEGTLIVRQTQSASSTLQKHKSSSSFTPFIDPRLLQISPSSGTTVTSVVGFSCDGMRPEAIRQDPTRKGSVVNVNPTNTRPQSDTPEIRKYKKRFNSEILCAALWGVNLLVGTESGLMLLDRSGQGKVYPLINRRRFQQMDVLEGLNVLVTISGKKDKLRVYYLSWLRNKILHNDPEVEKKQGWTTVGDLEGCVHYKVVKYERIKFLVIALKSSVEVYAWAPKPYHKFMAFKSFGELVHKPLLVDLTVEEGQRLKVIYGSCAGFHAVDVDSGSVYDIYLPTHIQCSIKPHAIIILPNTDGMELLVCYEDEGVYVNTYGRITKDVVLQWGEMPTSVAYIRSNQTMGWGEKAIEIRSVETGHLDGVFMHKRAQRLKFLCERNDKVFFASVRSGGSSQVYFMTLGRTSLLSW
In short: as §1

[7] = biological target: T7, IKKa/CHUK (Homo sapiens, UniProt O15111)
T7 construct: purchased Reaction Biology Corp
T7 sequence (O15111 1-745): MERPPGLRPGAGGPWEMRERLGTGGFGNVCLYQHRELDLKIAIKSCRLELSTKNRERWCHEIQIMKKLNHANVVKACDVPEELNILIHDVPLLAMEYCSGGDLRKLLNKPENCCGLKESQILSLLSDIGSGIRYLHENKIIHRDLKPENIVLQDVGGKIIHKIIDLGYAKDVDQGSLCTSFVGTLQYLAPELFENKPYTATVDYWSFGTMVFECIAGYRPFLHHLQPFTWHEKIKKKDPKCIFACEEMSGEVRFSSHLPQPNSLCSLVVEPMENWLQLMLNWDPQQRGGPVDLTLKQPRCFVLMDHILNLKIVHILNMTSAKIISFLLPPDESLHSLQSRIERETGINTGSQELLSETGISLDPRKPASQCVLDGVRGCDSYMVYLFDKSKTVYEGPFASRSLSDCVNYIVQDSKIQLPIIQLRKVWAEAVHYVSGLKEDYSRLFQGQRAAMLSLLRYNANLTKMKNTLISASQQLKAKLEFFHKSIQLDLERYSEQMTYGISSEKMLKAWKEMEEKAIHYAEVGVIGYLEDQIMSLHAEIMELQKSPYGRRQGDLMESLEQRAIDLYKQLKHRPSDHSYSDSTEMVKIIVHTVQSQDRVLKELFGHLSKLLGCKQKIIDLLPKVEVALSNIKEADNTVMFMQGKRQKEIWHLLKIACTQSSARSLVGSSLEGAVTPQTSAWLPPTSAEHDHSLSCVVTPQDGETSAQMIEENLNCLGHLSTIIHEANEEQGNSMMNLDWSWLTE
In short: as §1

[8] = biological target: T8, LIMK1 (Homo sapiens, UniProt P53667)
T8 construct: purchased Reaction Biology Corp
T8 sequence (P53667 whole entry): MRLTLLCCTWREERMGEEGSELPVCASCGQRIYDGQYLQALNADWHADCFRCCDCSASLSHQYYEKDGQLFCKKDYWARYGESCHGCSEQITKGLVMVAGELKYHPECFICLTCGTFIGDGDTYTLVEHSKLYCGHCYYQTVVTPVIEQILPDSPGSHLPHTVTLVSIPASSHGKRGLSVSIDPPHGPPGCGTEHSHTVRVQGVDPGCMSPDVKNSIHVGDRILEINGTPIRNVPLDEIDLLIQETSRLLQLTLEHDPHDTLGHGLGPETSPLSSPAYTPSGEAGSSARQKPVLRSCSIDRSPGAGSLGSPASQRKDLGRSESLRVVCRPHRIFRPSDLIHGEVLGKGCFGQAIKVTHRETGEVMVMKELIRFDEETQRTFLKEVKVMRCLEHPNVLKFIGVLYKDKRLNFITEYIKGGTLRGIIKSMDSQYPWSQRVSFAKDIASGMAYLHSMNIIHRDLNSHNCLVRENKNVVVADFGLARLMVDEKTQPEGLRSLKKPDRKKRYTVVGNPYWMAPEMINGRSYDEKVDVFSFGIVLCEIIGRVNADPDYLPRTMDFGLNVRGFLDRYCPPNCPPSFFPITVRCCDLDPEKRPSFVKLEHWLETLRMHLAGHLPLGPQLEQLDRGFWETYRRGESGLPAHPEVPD
In short: as §1

[9] = biological target: T9, LRRK2 (Homo sapiens, UniProt Q5S007)
T9 construct: purchased Reaction Biology Corp
In short: as §1

[10] = biological target: T10, RET (Homo sapiens, UniProt P07949)
T10 construct: purchased Reaction Biology Corp
In short: as §1

[11] = read-out: % Enzyme Activity (relative to DMSO controls) AVG
[12] = read-out: % Enzyme Activity (relative to DMSO controls) Data 1
[13] = read-out: % Enzyme Activity (relative to DMSO controls) Data 2

T1 sequence (Q07912 whole entry): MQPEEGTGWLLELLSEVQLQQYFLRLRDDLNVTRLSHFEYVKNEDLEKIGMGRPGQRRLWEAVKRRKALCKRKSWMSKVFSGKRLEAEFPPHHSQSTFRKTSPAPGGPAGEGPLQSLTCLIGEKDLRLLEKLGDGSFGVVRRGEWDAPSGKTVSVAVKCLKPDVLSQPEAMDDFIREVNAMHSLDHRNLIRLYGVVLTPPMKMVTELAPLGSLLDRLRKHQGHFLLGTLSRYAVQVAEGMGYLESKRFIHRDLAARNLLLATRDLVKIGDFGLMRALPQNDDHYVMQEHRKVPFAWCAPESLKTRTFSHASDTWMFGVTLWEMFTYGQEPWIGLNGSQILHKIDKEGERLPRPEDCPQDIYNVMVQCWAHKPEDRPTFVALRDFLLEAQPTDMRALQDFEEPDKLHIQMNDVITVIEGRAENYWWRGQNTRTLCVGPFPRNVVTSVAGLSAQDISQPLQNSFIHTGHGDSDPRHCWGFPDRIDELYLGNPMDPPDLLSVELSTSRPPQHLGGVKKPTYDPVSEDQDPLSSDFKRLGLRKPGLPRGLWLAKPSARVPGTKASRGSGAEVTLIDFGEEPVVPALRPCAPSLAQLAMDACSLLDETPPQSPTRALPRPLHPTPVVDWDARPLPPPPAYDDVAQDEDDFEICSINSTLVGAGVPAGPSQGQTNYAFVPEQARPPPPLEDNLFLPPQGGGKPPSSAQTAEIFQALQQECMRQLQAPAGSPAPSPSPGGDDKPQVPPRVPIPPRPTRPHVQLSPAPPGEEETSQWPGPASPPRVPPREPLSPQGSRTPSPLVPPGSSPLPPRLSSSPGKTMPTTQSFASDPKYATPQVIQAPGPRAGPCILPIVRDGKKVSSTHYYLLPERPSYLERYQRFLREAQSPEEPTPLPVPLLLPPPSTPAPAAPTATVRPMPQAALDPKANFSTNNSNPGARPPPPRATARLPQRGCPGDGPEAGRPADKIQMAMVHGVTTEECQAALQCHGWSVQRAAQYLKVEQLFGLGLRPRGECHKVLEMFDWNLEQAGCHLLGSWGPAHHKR

## CC(C)(C)C(=O)N1N=CC[C@H]1c1ccccc1 [GSK′963]
[1]; [11]
  remaining activity at 10 µM: 82.3%
[1]; [12]
  remaining activity at 10 µM: 84.2%
[1]; [13]
  remaining activity at 10 µM: 80.3%
[2]; [11]
  remaining activity at 10 µM: 101%
[2]; [12]
  remaining activity at 10 µM: 103%
[2]; [13]
  remaining activity at 10 µM: 99.8%
[3]; [11]
  remaining activity at 10 µM: 95.6%
[3]; [12]
  remaining activity at 10 µM: 95%
[3]; [13]
  remaining activity at 10 µM: 96.1%
[4]; [11]
  remaining activity at 10 µM: 102%
[4]; [12]
  remaining activity at 10 µM: 101%
[4]; [13]
  remaining activity at 10 µM: 102%
[5]; [11]
  remaining activity at 10 µM: 108%
[5]; [12]
  remaining activity at 10 µM: 109%
[5]; [13]
  remaining activity at 10 µM: 106%
[6]; [11]
  remaining activity at 10 µM: 95.7%
[6]; [12]
  remaining activity at 10 µM: 94.5%
[6]; [13]
  remaining activity at 10 µM: 97%
[7]; [11]
  remaining activity at 10 µM: 89.5%
[7]; [12]
  remaining activity at 10 µM: 91.1%
[7]; [13]
  remaining activity at 10 µM: 88%
[8]; [11]
  remaining activity at 10 µM: 113%
[8]; [12]
  remaining activity at 10 µM: 112%
[8]; [13]
  remaining activity at 10 µM: 114%
[9]; [11]
  remaining activity at 10 µM: 99.5%
[9]; [12]
  remaining activity at 10 µM: 102%
[9]; [13]
  remaining activity at 10 µM: 97.1%
[10]; [11]
  remaining activity at 10 µM: 108%
[10]; [12]
  remaining activity at 10 µM: 107%
[10]; [13]
  remaining activity at 10 µM: 108%

Source: article PMC4979471 (Cell Death Discovery, 2015)
